Source: patent publication US11197918B2, “Pharmaceutical composition for preventing or treating neovascular disease, containing collagen type i and pigment epithelium derived factor peptide as active ingredients” (NexThera Co., Ltd., priority 2017, dated 2021)

Experiments:
HUVECs cells = test: Tube formation assay in VEGF-165-induced HUVECs; format: cell-based, human
Description: 48-well plates were coated with 200 μl Matrigel and maintained at 37° C. for 1 hour, and HUVECs cells were stained with Calcein-AM for 15 minutes at 37° C.
The stained HUVECs cells were dispensed into 2×10^4 cells in each well of a Matrigel-coated plate and treated with recombinant human VEGF-165 into each well to induce the tube formation of the cells.
Thereafter, collagen type I (collagen type I alpha 1, partial [Sus scrofa] GenBank: AAR03833.1) and 34-mer pigment epithelium derived factor peptide (DPFFKVPVNKLAAAVSNFGYDLYRVRSSTSPTTN: SEQ ID NO: 1) were treated separately, respectively, or mixed together and treated and incubated for 4 hours at 37° C., and the degree of tube formation of each group was confirmed.
The degree of tube formation was confirmed by taking pictures with a Micromanipulator (Olympus) and compared by measuring the length of the tube.

[1] = tested on: choroidal neovascularization (CNV); test: Laser-induced choroidal neovascularization model, intravitreal injection immediately after laser irradiation; format: in vivo, C57BL/6 mice; details: intraocular injection for 5 days, day 14 after laser (FIG. 2A, 2B)
Description: 5-8 week old C57BL/6 mice were purchased from Orient and used.
The pupils of each mouse were dilated using 5 mg/mL Tropicamide (santen pharmaceutical co. ltd, Kita-ku, Osaka, Japan) eye drops and 100 mg/kg ketamine (Huons, SEONGNAM-SI, GYEONGGI-DO, Korea) and 10 mg/kg xylazine (BAYER, Leverkusen, Germany) were anesthetized by intraperitoneal injection.
After anesthesia, the mice were fixed to the mouse holder, and a laser beam of 150 to 210 mW intensity was irradiated for 0.1 second using a slit lamp microscope laser system to prepare four lesions of 50-100 μm size in the retinas of mice at 3, 6, 9 and 12 o'clock. At this time, droplets should be formed by the laser beam, which are important for breaking Bruch's membranes to form neovascularization (CNV). […]
The stained eyeball was separated and placed in 10% formalin to fix for 30 minutes, and then muscles, corneas, irises, lenses and vitreous bodies around the eyeball were carefully removed not to hurt the eye's retina fixed on the microscope and four sections were cut at 3, 6, 9, and 12 o'clock, covered with coverslip, the lesion was photographed using a fluorescence microscope, and the size was measured to compare with the control group.

[2] = tested on: choroidal neovascularization (CNV); test: Choroidal neovascularization model with complete neovascularization, treatment on day 7 after laser irradiation; format: in vivo, C57BL/6 mice; details: 0.1% collagen type I, 25 pmol peptide or their mixture, administered once on day 7 after laser irradiation (FIG. 7B, 7C)
HUVECs tube formation = test: Stability confirmation by tube formation assay after storage; format: physicochemical, human; details: stored for 6 weeks at 4° C. and room temperature (FIG. 11)
Description: In order to confirm the stability of the mixture of PEDF 34-mer peptide and collagen, the mixture of PEDF 34-mer peptide and collagen and the PEDF 34-mer peptide were stored for 6 weeks at 4° C. and room temperature (RT), and stability of PEDF 34-mer peptide and PEDF 34-mer peptide and collagen mixture, which were prepared immediately before the experiment, were compared.
Tube formation assay for each mixture was performed to confirm angiogenesis inhibitory ability.

With “DPFFKVPVNKLAAAVSNFGYDLYRVRSSTSPTTN (DPFFKVPVNKLAAAVSNFGYDLYRVRSSTSPTTN; pigemented epithelium derived factor peptide)” the “inhibitory effect on tube formation” value (HUVECs cells; carrier comparison: 0.1% collagen type I, hyaluronic acid or gelatin, alone or with peptide 0.02-500 pmol/ml (FIG. 4)) was “same as that of the 34-mer pigment epithelium derived factor peptide and collagen type I mixture administration group”, the “inhibitory effect on tube formation” value (HUVECs cells; peptide alone 0.2 pg/ml, VEGF-165-induced HUVECs, 4 hours (FIG. 1A, 1B)) was “greatest inhibitory effect on tube formation” and the tube formation (HUVECs cells; peptide alone at higher concentrations (up to 5 pmol/ml), 4 hours (FIG. 1A, 1B)) was “the tube formation increased again”. For the same substance, the tube formation (HUVECs cells; peptide at high concentration, alone or mixed with 0.05 or 0.1% collagen type I (FIG. 3)) was “the tube formation increased rapidly”, the “size of neovascularization (CNV)” value ([1]; peptide 10 pmol) was “increase neovascularization (CNV) again” and the “size of neovascularization (CNV)” value ([1]; peptide 0.01, 0.5 and 0.1 pmol) was “significantly reduced”. For the same substance, the angiogenesis inhibitory effect [2] was “almost no angiogenesis inhibitory effect” and the “stability: tube formation inhibition after storage compared with preparation made immediately before the experiment” value (HUVECs tube formation) was “did not inhibit the tube formation”.
